Reference: ChEMBL document CHEMBL1139587, “Synthesis of an N-acyl sulfamate analog of luciferyl-AMP: a stable and potent inhibitor of firefly luciferase” (Bioorg Med Chem Lett, 2005)

T1: Luciferin 4-monooxygenase (Luciola lateralis, UniProt Q01158)
T1 sequence (Q01158 whole entry): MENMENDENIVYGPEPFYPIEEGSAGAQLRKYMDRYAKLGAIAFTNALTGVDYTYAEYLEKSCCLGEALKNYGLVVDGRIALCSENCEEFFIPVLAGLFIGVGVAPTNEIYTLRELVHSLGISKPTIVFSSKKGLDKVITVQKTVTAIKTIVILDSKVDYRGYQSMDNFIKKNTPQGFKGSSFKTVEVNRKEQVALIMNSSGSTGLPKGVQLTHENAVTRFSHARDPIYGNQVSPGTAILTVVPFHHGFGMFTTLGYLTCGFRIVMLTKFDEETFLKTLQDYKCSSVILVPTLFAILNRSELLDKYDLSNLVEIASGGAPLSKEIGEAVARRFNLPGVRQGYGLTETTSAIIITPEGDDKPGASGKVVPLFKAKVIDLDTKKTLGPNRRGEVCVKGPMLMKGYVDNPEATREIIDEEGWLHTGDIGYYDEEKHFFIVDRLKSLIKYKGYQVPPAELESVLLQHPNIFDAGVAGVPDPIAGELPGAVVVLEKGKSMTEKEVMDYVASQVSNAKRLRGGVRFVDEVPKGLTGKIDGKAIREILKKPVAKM


What was measured:
[1] = target: T1, Luciferin 4-monooxygenase; test: Inhibition constant against luciferase with respect to luciferyl-adenylate; parameters: species or system Aquatica lateralis
[2] = target: T1, Luciferin 4-monooxygenase; test: Inhibition constant against luciferase with respect to natural substrate Mg-ATP; parameters: species or system Aquatica lateralis
[3] = target: T1, Luciferin 4-monooxygenase; test: Inhibition constant against luciferase with respect to natural substrate luciferin; parameters: species or system Aquatica lateralis
[4] = substrate: Nc1ncnc2c1ncn2C1O[C@H](COP(=O)(O)OC(=O)c2csc(-c3nc4ccc(O)cc4s3)n2)[C@@H](O)[C@H]1O; test: Binding affinity against luciferase; details: Aquatica lateralis

Ki [1]	Ki [2]	Ki [3]	Molecule	Km [4]
340 nM	41 nM	34 nM	Nc1ncnc2c1ncn2[C@@H]1O[C@H](COS(=O)(=O)NC(=O)c2csc(-c3nc4ccc(O)cc4s3)n2)[C@@H](O)[C@H]1O	–
–	–	–	Luciferin 4-monooxygenase (Luciola lateralis), Q01158 (protein) MENMENDENIVYGPEPFYPIEEGSAGAQLRKYMDRYAKLGAIAFTNALTGVDYTYAEYLEKSCCLGEALKNYGLVVDGRIALCSENCEEFFIPVLAGLFIGVGVAPTNEIYTLRELVHSLGISKPTIVFSSKKGLDKVITVQKTVTAIKTIVILDSKVDYRGYQSMDNFIKKNTPQGFKGSSFKTVEVNRKEQVALIMNSSGSTGLPKGVQLTHENAVTRFSHARDPIYGNQVSPGTAILTVVPFHHGFGMFTTLGYLTCGFRIVMLTKFDEETFLKTLQDYKCSSVILVPTLFAILNRSELLDKYDLSNLVEIASGGAPLSKEIGEAVARRFNLPGVRQGYGLTETTSAIIITPEGDDKPGASGKVVPLFKAKVIDLDTKKTLGPNRRGEVCVKGPMLMKGYVDNPEATREIIDEEGWLHTGDIGYYDEEKHFFIVDRLKSLIKYKGYQVPPAELESVLLQHPNIFDAGVAGVPDPIAGELPGAVVVLEKGKSMTEKEVMDYVASQVSNAKRLRGGVRFVDEVPKGLTGKIDGKAIREILKKPVAKM	4.7 µM
